From ChEMBL document CHEMBL4680259, “Discovery of bazedoxifene analogues targeting glycoprotein 130” (Eur J Med Chem, 2020)
pIC50, pKd: −log10 of the molar value. The source made the active and inactive calls. No cut-off for these calls is given here.

Legend:
[1] = Mean residence time in rat at 0.5 mg/kg, iv; assay type: ADME, organism-based; conditions: in vivo
A549 [2] = experiment: Induction of ROS generation in human A549 cells assessed as fold increase in ROS level at 3 uM after 24 hrs by DCFH-DA staining based flow cytometric analysis relative to control; assay type: functional
[3] = target: T1, Interleukin-6 receptor subunit beta (Homo sapiens) (UniProt P40189); experiment: Binding affinity to GP130 in human A549 cell lysates assessed as decrease in pronase mediated protein degradation by measuring increase in abundance of GP130 band at 100 to 1000 uM preincubated for 1 hr followed by pronase addition for 30 mins by DARTS assay; assay type: subcellular; conditions: dose 100-1000 µM, time 90.0 min
T1 sequence (whole entry): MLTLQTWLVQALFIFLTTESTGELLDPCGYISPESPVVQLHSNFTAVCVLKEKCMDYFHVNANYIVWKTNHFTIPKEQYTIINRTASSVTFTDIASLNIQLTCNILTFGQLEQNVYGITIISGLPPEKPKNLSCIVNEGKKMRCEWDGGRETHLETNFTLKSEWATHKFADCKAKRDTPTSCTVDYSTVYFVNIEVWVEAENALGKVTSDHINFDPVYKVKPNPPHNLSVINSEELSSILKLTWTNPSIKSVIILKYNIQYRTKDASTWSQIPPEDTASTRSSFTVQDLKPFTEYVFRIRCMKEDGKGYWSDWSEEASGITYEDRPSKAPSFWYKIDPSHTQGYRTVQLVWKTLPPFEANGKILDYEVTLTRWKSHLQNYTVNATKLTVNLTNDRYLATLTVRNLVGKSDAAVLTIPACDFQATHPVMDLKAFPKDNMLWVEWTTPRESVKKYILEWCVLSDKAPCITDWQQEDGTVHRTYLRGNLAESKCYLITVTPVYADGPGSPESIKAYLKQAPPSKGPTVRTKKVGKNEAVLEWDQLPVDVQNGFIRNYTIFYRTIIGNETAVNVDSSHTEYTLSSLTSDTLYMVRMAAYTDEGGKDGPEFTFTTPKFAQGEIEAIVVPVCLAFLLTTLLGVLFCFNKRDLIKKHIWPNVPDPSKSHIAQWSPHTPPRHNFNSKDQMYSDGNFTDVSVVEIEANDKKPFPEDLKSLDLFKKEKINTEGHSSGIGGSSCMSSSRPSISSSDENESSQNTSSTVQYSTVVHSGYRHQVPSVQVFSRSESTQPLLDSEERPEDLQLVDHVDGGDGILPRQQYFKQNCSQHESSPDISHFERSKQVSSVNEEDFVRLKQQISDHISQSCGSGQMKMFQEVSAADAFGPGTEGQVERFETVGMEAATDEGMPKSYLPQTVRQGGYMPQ

A549 [4] = experiment: Induction of apoptosis in human A549 cells assessed as increase in cleaved PARP level at 3 to 9 uM incubated for 24 hrs by Western blot analysis; assay type: functional, cell-based; conditions: dose 3-9 µM
[5] = AUC (0 to t) in rat at 0.5 mg/kg, iv; assay type: ADME, organism-based; parameters: dose 0.5 mg/kg; conditions: in vivo
A549 [6] = experiment: Potency index, ratio of bazedoxifene IC50 to test compound IC50 for antiproliferative activity against human A549 cells after 24 hrs by MTT assay; assay type: functional
[7] = Acute toxicity in ICR mouse assessed as abnormal behaviour at 120 mg/kg measured after 2 weeks; assay type: organism-based; conditions: in vivo, 336 h
A549 [8] = experiment: Antiproliferative activity against human A549 cells assessed as cell growth inhibition measured after 24 hrs by MTT assay; assay type: functional, cell-based; conditions: A549, 24 h
A549 [9] = experiment: Induction of apoptosis in human A549 cells assessed as early apoptotic cells at 6 uM incubated for 24 hrs by annexin V-FITC and propidium iodide staining based flow cytometry analysis (reference value: 0.5 %); assay type: functional
A549 [10] = experiment: Induction of apoptosis in human A549 cells assessed as viable cells at 3 uM incubated for 24 hrs by annexin V-FITC and propidium iodide staining based flow cytometry analysis (reference value: 97.7 %); assay type: functional; conditions: read-out: Activity
[11] = target: T1, Interleukin-6 receptor subunit beta (Homo sapiens); experiment: Inhibition of GP130 in human A549 cells assessed as decrease in STAT3 phosphorylation at Y705 residue at 3 to 9 uM incubated for 24 hrs by western blot analysis; assay type: cell-based; conditions: dose 3-9 µM
A549 [12] = experiment: Induction of apoptosis in human A549 cells assessed as late apoptotic cells at 6 uM incubated for 24 hrs by annexin V-FITC and propidium iodide staining based flow cytometry analysis (reference value: 1.4 %); assay type: functional
A549 [13] = experiment: Induction of ROS generation in human A549 cells assessed as fold increase in ROS level at 6 uM after 24 hrs by DCFH-DA staining based flow cytometric analysis relative to control; assay type: functional
A549 [14] = experiment: Induction of apoptosis in human A549 cells assessed as increase in cleaved caspase-7 level at 3 to 9 uM incubated for 24 hrs by Western blot analysis; assay type: functional, cell-based; conditions: dose 3-9 µM
[15] = AUC (0 to infinity) in rat at 0.5 mg/kg, iv; assay type: ADME, organism-based; parameters: route intravenous, time infinity, dose 0.5 mg/kg; conditions: in vivo
A549 [16] = experiment: Induction of apoptosis in human A549 cells assessed as early apoptotic cells at 3 uM incubated for 24 hrs by annexin V-FITC and propidium iodide staining based flow cytometry analysis (reference value: 0.5 %); assay type: functional
[17] = Volume of distribution in rat at 5 mg/kg, ig; assay type: ADME, organism-based; conditions: in vivo, po
[18] = Volume of distribution in rat at 0.5 mg/kg, iv; assay type: ADME, organism-based; conditions: in vivo
A549 [19] = experiment: Induction of apoptosis in human A549 cells assessed as necrotic cells at 6 uM incubated for 24 hrs by annexin V-FITC and propidium iodide staining based flow cytometry analysis (reference value: 0.4 %); assay type: functional
A549 [20] = experiment: Induction of apoptosis in human A549 cells assessed as early apoptotic cells at 9 uM incubated for 24 hrs by annexin V-FITC and propidium iodide staining based flow cytometry analysis (reference value: 0.5 %); assay type: functional
A549 [21] = experiment: Induction of apoptosis in human A549 cells assessed as late apoptotic cells at 9 uM incubated for 24 hrs by annexin V-FITC and propidium iodide staining based flow cytometry analysis (reference value: 1.4 %); assay type: functional
[22] = target: T2, Interleukin-6 receptor subunit beta (Homo sapiens, UniProt P40189); experiment: Binding affinity to immobilized GP130 (unknown origin) by SPR analysis
T2 sequence (P40189 whole entry): T1 sequence (whole entry)

[23] = AUC (0 to t) in rat at 5 mg/kg, ig; assay type: ADME, organism-based; parameters: dose 5 mg/kg; conditions: in vivo, po
A549 [24] = experiment: Induction of apoptosis in human A549 cells assessed as late apoptotic cells at 3 uM incubated for 24 hrs by annexin V-FITC and propidium iodide staining based flow cytometry analysis (reference value: 1.4 %); assay type: functional
A549 [25] = experiment: Induction of apoptosis in human A549 cells assessed as increase in cleaved caspase-3 level at 3 to 9 uM incubated for 24 hrs by Western blot analysis; assay type: functional, cell-based; conditions: dose 3-9 µM
[26] = target: T1, Interleukin-6 receptor subunit beta (Homo sapiens); experiment: Inhibition of GP130 in human A549 cells assessed as decrease in IL6-induced STAT3 phosphorylation at Y705 residue at 9 uM incubated for 24 hrs by western blot analysis; assay type: cell-based
A549 [27] = experiment: Induction of apoptosis in human A549 cells assessed as viable cells at 9 uM incubated for 24 hrs by annexin V-FITC and propidium iodide staining based flow cytometry analysis (reference value: 97.7 %); assay type: functional; conditions: read-out: Activity
[28] = target: T1, Interleukin-6 receptor subunit beta (Homo sapiens); experiment: Inhibition of GP130 in human A549 cells assessed as reduction in cyclin-D1 protein expression after 24 hrs by Western blot analysis; assay type: cell-based; conditions: dose 3-9 µM

NC(=O)N1N=C(c2ccc(C(F)(F)F)cc2)CC1c1cn(Cc2ccc(OCCN3CCCCCC3)cc2)c2ccc(Br)cc12 (stereo not drawn)
MRT [1]: 13.7 h | fold change (FC) (A549 [2]): 1.93 | Activity [3]: Active | Activity (A549 [4]): Active | AUC(0-t) [5]: 468 ng·h/mL | Ratio IC50 (A549 [6]): 5.5 | Activity [7]: Non-Toxic | pIC50 (A549 [8]): 5.35 | Activity (A549 [9]): 1.7% | viability at 3 µM (A549 [10]): 96.3% | Activity [11]: Active | Activity (A549 [12]): 4.9% | fold change (FC) (A549 [13]): 4.09 | Activity (A549 [14]): Active | AUC(0-inf) [15]: 585 ng·h/mL | Activity (A549 [16]): 0.9% | Vd [17]: 12.6 L/kg | Vd [18]: 14.6 L/kg | Activity (A549 [19]): 1.9% | Activity (A549 [20]): 3.1% | Activity (A549 [21]): 33% | pKd [22]: 5.42 | AUC(0-t) [23]: 304 ng·h/mL | Activity (A549 [24]): 2.5% | Activity (A549 [25]): Active | Activity [26]: Active | viability at 9 µM (A549 [27]): 60.6% | inhibition [28]: Dose-dependent effect
